Tested on: Acinetobacter baumannii-calcoaceticus species complex clinical isolates
Experiment: MIC of triple combinations (Compound 1, sulbactam, meropenem or cefepime), 141 clinical isolates
Type: cell-based
Conditions: Cmpd 1 at 4 μg/mL in combinations
Text: For a more comprehensive assessment of the ability of test compounds to potentiate sulbactam in triple combinations with β-lactams additional MIC assays were utilized.

Question: For `CC1(C)[C@H](C(=O)O)N2C(=O)C[C@H]2S1(=O)=O` [SUL, Sulbactam], which MIC (Acinetobacter, strain 1014815) is on record?
Answer: Its MIC is 64 µg/mL.

Question: And the MIC (Acinetobacter, strain 1014866)?
Answer: The MIC was 32 µg/mL.

Question: What about the MIC (Acinetobacter, strain 1014878) of the same molecule?
Answer: The MIC was 32 µg/mL.

Question: What about the MIC (Acinetobacter, strain 1014890) of the same molecule?
Answer: Its MIC is 32 µg/mL.

Question: And the MIC (Acinetobacter, strain 1016545)?
Answer: The MIC was 16 µg/mL.

Question: And the MIC (Acinetobacter, strain 1016836)?
Answer: Its MIC is 32 µg/mL.

Question: What about the MIC (Acinetobacter, strain 1017679) of the same molecule?
Answer: The MIC was 32 µg/mL.

Question: And the MIC (Acinetobacter, strain 1018109)?
Answer: Its MIC is 4 µg/mL.

Question: And the MIC (Acinetobacter, strain 1018801)?
Answer: Its MIC is 64 µg/mL.

Question: And the MIC (Acinetobacter, strain 1018802)?
Answer: Its MIC is 64 µg/mL.

Question: What about the MIC (Acinetobacter, strain 1018804) of the same molecule?
Answer: The MIC was 32 µg/mL.

Question: What about the MIC (Acinetobacter, strain 1018806) of the same molecule?
Answer: The MIC was 64 µg/mL.

Question: And the MIC (Acinetobacter, strain 1018807)?
Answer: The MIC was 32 µg/mL.

Question: And the MIC (Acinetobacter, strain 1018851)?
Answer: Its MIC is 64 µg/mL.

Question: And the MIC (Acinetobacter, strain 1023034)?
Answer: Its MIC is 16 µg/mL.

Question: And the MIC (Acinetobacter, strain 1023074)?
Answer: Its MIC is 32 µg/mL.

Question: And the MIC (Acinetobacter, strain 1023207)?
Answer: Its MIC is 16 µg/mL.

Question: And the MIC (Acinetobacter, strain 1023329)?
Answer: Its MIC is 16 µg/mL.

Question: And the MIC (Acinetobacter, strain 1024119)?
Answer: The MIC was 32 µg/mL.

Question: What about the MIC (Acinetobacter, strain 1024215) of the same molecule?
Answer: Its MIC is 16 µg/mL.

Question: What about the MIC (Acinetobacter, strain 1026990) of the same molecule?
Answer: The MIC was 16 µg/mL.

Question: What about the MIC (Acinetobacter, strain 1026992) of the same molecule?
Answer: The MIC was 16 µg/mL.

Question: What about the MIC (Acinetobacter, strain 1027234) of the same molecule?
Answer: The MIC was 8 µg/mL.

Question: What about the MIC (Acinetobacter, strain 1027590) of the same molecule?
Answer: The MIC was 32 µg/mL.

Question: What about the MIC (Acinetobacter, strain 1027603) of the same molecule?
Answer: The MIC was 8 µg/mL.

Question: What about the MIC (Acinetobacter, strain 1027748) of the same molecule?
Answer: Its MIC is 8 µg/mL.

Question: What about the MIC (Acinetobacter, strain 1028193) of the same molecule?
Answer: Its MIC is 64 µg/mL.

Question: What about the MIC (Acinetobacter, strain 1029770) of the same molecule?
Answer: Its MIC is 32 µg/mL.

Question: And the MIC (Acinetobacter, strain 1029913)?
Answer: The MIC was 16 µg/mL.

Question: And the MIC (Acinetobacter, strain 1030427)?
Answer: The MIC was 16 µg/mL.

Question: And the MIC (Acinetobacter, strain 1030928)?
Answer: Its MIC is 64 µg/mL.

Question: And the MIC (Acinetobacter, strain 1030945)?
Answer: Its MIC is 32 µg/mL.

Question: And the MIC (Acinetobacter, strain 1031136)?
Answer: The MIC was 32 µg/mL.

Question: What about the MIC (Acinetobacter, strain 1031167) of the same molecule?
Answer: Its MIC is 64 µg/mL.

Question: And the MIC (Acinetobacter, strain 1031177)?
Answer: Its MIC is 16 µg/mL.

Question: And the MIC (Acinetobacter, strain 1031191)?
Answer: The MIC was 16 µg/mL.

Question: What about the MIC (Acinetobacter, strain 1031211) of the same molecule?
Answer: The MIC was 32 µg/mL.

Question: And the MIC (Acinetobacter, strain 1031238)?
Answer: Its MIC is 32 µg/mL.

Question: What about the MIC (Acinetobacter, strain 1031566) of the same molecule?
Answer: Its MIC is 32 µg/mL.

Question: What about the MIC (Acinetobacter, strain 1032669) of the same molecule?
Answer: The MIC was 16 µg/mL.

Question: What about the MIC (Acinetobacter, strain 1032761) of the same molecule?
Answer: Its MIC is 64 µg/mL.

Question: What about the MIC (Acinetobacter, strain 1033340) of the same molecule?
Answer: Its MIC is 16 µg/mL.

Question: And the MIC (Acinetobacter, strain 1033979)?
Answer: The MIC was 64 µg/mL.

Question: And the MIC (Acinetobacter, strain 1034048)?
Answer: The MIC was 32 µg/mL.

Question: And the MIC (Acinetobacter, strain 1034880)?
Answer: Its MIC is 32 µg/mL.

Question: And the MIC (Acinetobacter, strain 1034912)?
Answer: The MIC was 32 µg/mL.

Question: And the MIC (Acinetobacter, strain 1034913)?
Answer: The MIC was 32 µg/mL.

Question: What about the MIC (Acinetobacter, strain 1034916) of the same molecule?
Answer: The MIC was 64 µg/mL.

Question: And the MIC (Acinetobacter, strain 1034925)?
Answer: Its MIC is 32 µg/mL.

Question: What about the MIC (Acinetobacter, strain 1034931) of the same molecule?
Answer: The MIC was 16 µg/mL.

Question: What about the MIC (Acinetobacter, strain 1034951) of the same molecule?
Answer: Its MIC is 32 µg/mL.

Question: What about the MIC (Acinetobacter, strain 1034962) of the same molecule?
Answer: Its MIC is 32 µg/mL.

Question: What about the MIC (Acinetobacter, strain 1035144) of the same molecule?
Answer: The MIC was 32 µg/mL.

Question: What about the MIC (Acinetobacter, strain 1035788) of the same molecule?
Answer: Its MIC is 32 µg/mL.

Question: What about the MIC (Acinetobacter, strain 1035794) of the same molecule?
Answer: The MIC was 64 µg/mL.

Question: What about the MIC (Acinetobacter, strain 1035808) of the same molecule?
Answer: The MIC was 32 µg/mL.

Question: What about the MIC (Acinetobacter, strain 1035825) of the same molecule?
Answer: Its MIC is 32 µg/mL.

Question: What about the MIC (Acinetobacter, strain 1035900) of the same molecule?
Answer: The MIC was 32 µg/mL.

Question: What about the MIC (Acinetobacter, strain 1036023) of the same molecule?
Answer: Its MIC is 64 µg/mL.

Question: And the MIC (Acinetobacter, strain 1036045)?
Answer: Its MIC is 32 µg/mL.

Question: And the MIC (Acinetobacter, strain 1036068)?
Answer: Its MIC is 32 µg/mL.

Question: And the MIC (Acinetobacter, strain 1036734)?
Answer: Its MIC is 32 µg/mL.

Question: What about the MIC (Acinetobacter, strain 1036768) of the same molecule?
Answer: Its MIC is 32 µg/mL.

Question: And the MIC (Acinetobacter, strain 1036781)?
Answer: Its MIC is 32 µg/mL.

Question: What about the MIC (Acinetobacter, strain 1036859) of the same molecule?
Answer: Its MIC is 32 µg/mL.

Question: What about the MIC (Acinetobacter, strain 1036882) of the same molecule?
Answer: Its MIC is 32 µg/mL.

Question: What about the MIC (Acinetobacter, strain 1036921) of the same molecule?
Answer: Its MIC is 64 µg/mL.

Question: What about the MIC (Acinetobacter, strain 1037193) of the same molecule?
Answer: Its MIC is 16 µg/mL.

Question: What about the MIC (Acinetobacter, strain 1037211) of the same molecule?
Answer: Its MIC is 64 µg/mL.

Question: And the MIC (Acinetobacter, strain 1037251)?
Answer: Its MIC is 32 µg/mL.

Question: And the MIC (Acinetobacter, strain 1037256)?
Answer: The MIC was 16 µg/mL.

Question: What about the MIC (Acinetobacter, strain 1037294) of the same molecule?
Answer: Its MIC is 64 µg/mL.

Question: And the MIC (Acinetobacter, strain 1037462)?
Answer: The MIC was 16 µg/mL.

Question: What about the MIC (Acinetobacter, strain 1037593) of the same molecule?
Answer: Its MIC is 32 µg/mL.

Question: And the MIC (Acinetobacter, strain 1037618)?
Answer: Its MIC is 64 µg/mL.

Question: What about the MIC (Acinetobacter, strain 1037714) of the same molecule?
Answer: The MIC was 8 µg/mL.

Question: What about the MIC (Acinetobacter, strain 1037731) of the same molecule?
Answer: The MIC was 16 µg/mL.

Question: And the MIC (Acinetobacter, strain 1037732)?
Answer: Its MIC is 16 µg/mL.

Question: What about the MIC (Acinetobacter, strain 1037738) of the same molecule?
Answer: Its MIC is 16 µg/mL.

Question: And the MIC (Acinetobacter, strain 1037747)?
Answer: Its MIC is 32 µg/mL.

Question: And the MIC (Acinetobacter, strain 1038418)?
Answer: The MIC was 16 µg/mL.

Question: And the MIC (Acinetobacter, strain 1038439)?
Answer: Its MIC is 16 µg/mL.

Question: What about the MIC (Acinetobacter, strain 1039502) of the same molecule?
Answer: The MIC was 64 µg/mL.

Question: And the MIC (Acinetobacter, strain 1039514)?
Answer: Its MIC is 16 µg/mL.

Question: What about the MIC (Acinetobacter, strain 1039515) of the same molecule?
Answer: The MIC was 32 µg/mL.

Question: And the MIC (Acinetobacter, strain 1039518)?
Answer: Its MIC is 16 µg/mL.

Question: And the MIC (Acinetobacter, strain 1040900)?
Answer: The MIC was 8 µg/mL.

Question: What about the MIC (Acinetobacter, strain 1040901) of the same molecule?
Answer: The MIC was 64 µg/mL.

Question: What about the MIC (Acinetobacter, strain 1040916) of the same molecule?
Answer: The MIC was 32 µg/mL.

Question: What about the MIC (Acinetobacter, strain 1042182) of the same molecule?
Answer: The MIC was 16 µg/mL.

Question: And the MIC (strain 1002960)?
Answer: The MIC was 128 µg/mL.

Question: And the MIC (strain 1010331)?
Answer: The MIC was 128 µg/mL.

Question: And the MIC (strain 1010950)?
Answer: Its MIC is 128 µg/mL.

Question: What about the MIC (strain 1019086) of the same molecule?
Answer: Its MIC is 128 µg/mL.

Question: What about the MIC (strain 1023031) of the same molecule?
Answer: The MIC was 128 µg/mL.

Question: What about the MIC (strain 1037479) of the same molecule?
Answer: Its MIC is 128 µg/mL.

Question: What about the MIC (strain 1040917) of the same molecule?
Answer: Its MIC is 128 µg/mL.

Reference: patent US20220054513A1, “COMBINATION COMPOSITIONS COMPRISING A BETA-LACTAMASE INHIBITOR” (VenatoRx Pharmaceuticals, Inc., priority 2018, published 2022)
